The text below walks through data of US20200291018A1, “TAM KINASE INHIBITORS” (SYROS PHARMACEUTICALS, INC., priority 2017, published 2020).

The target in one assay is T1, AXL (Homo sapiens, UniProt P30530).
T1 sequence (P30530 26-894): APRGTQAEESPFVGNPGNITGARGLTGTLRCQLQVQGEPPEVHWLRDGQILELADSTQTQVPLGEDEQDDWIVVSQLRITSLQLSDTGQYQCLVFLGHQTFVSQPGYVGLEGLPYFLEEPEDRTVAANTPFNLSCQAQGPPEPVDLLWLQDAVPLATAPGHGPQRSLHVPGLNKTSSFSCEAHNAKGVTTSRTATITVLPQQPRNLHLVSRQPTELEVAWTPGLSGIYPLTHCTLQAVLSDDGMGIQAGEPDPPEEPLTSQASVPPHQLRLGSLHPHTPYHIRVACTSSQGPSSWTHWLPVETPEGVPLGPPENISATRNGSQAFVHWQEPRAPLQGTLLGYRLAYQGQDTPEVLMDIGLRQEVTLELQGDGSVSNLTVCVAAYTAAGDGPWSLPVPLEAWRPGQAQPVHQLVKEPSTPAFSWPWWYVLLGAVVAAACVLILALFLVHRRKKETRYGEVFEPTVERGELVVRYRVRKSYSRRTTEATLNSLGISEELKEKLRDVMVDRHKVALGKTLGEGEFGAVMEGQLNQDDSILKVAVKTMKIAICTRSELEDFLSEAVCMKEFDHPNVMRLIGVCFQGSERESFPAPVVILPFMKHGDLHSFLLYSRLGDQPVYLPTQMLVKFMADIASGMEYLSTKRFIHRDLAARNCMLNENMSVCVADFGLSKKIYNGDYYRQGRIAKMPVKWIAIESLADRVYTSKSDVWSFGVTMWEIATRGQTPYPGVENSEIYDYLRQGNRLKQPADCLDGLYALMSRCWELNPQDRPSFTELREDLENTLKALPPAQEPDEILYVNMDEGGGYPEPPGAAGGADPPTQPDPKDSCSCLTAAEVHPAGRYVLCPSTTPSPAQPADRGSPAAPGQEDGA
Put plainly: TR-FRET kinase activity assay, AXL. The assay is classed as biochemical. The conditions noted are these: ATP at Km, 60 minutes. The method, boiled down:
(§1)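 IC50s come from loss of TR-FRET between a Eu-labeled phospho-site antibody and fluorescent tyrosine-phosphorylated peptide. Kinase reactions, initiated with Km ATP, ran 60 min at RT at pH 7.5 before EDTA quench.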
(In general: In TR-FRET formats the signal depends on donor and acceptor labels being close together.)

The next assay has as its target T2, TYRO3 (Homo sapiens, UniProt Q06418).
T2 sequence (Q06418 41-890): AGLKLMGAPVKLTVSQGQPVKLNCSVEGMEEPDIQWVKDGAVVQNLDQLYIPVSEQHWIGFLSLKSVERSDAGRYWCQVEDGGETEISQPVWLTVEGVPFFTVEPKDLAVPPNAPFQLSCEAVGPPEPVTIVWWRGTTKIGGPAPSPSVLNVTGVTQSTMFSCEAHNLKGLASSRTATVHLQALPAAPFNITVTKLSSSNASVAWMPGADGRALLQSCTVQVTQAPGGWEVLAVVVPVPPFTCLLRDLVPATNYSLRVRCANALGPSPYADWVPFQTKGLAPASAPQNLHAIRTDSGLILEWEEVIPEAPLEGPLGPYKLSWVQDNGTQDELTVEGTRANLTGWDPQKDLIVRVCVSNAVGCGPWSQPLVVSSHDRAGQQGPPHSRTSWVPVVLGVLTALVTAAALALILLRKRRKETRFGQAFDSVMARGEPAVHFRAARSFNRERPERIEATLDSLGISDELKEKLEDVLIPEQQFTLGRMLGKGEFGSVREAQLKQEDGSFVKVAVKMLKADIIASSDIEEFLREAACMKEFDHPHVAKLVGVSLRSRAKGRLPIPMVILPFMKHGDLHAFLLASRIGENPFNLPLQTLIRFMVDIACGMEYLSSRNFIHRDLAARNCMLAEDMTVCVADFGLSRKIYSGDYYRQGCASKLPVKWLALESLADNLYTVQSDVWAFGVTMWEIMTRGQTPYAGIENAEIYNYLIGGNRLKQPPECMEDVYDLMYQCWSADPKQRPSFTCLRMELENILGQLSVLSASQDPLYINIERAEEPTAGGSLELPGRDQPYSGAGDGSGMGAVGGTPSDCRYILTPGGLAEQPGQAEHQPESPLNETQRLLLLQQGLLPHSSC
Put plainly: TR-FRET kinase activity assay, TYRO3. Format: biochemical. Particulars: ATP at Km, 60 minutes. The method, boiled down:
as §1

One may read the IC50 as the concentration at which inhibition is half-maximal. For the molecule `COC[C@H](C)Nc1ncc2c(OC3CCOCC3)ncc([C@H]3CCCN(C)C3)c2n1` [Compound 332], the IC50 at AXL fell in the range of 1 to 10 µM; at TYRO3, 0.1 to 1 µM.
The matching figures for `COC[C@H](C)Nc1ncc2c(OC3CCOCC3)ncc([C@@H]3CCCN(C)C3)c2n1` [Compound 333]: 1 to 10 µM and 1 to 10 µM.
The matching figures for `COC[C@H](C)Nc1ncc2c(OC3CCOCC3)ncc(-c3cnn([C@H]4CCN(C)C4)c3)c2n1` [Compound 334]: 1 to 10 µM and 0.1 to 1 µM.
Take `COC[C@H](C)Nc1ncc2c(OC3CCOCC3)ncc(-c3ccc(CO)cc3)c2n1` [Compound 335]: the IC50 on AXL lay in the range of 1 to 10 µM; at TYRO3, 0.1 to 1 µM.
The matching figures for `O[C@H]1CC[C@H](c2cnc(OC3CCOCC3)c3cnc(N[C@H]4CCC(F)(F)C4)nc32)CC1` [Compound 336]: 0.1 to 1 µM and 0.1 to 1 µM.
The matching figures for `COC[C@H](C)Nc1ncc2c(OC3CCOCC3)ncc(-c3ccc(N)nc3)c2n1` [Compound 337]: 1 to 10 µM and 0.1 to 1 µM.
For `C[C@H](CC(F)(F)F)Nc1ncc2c(OC3CCOCC3)ncc([C@H]3CC[C@H](O)CC3)c2n1` [Compound 338] the same measures were 1 to 10 µM and 0.1 to 1 µM.
In the case of `CCC1(Nc2ncc3c(OC4CCOCC4)ncc([C@H]4CC[C@H](O)CC4)c3n2)CC1` [Compound 339], the IC50 against AXL and on TYRO3 was 0.1 to 1 µM in each case.
In the case of `CNC(=O)N[C@H]1CC[C@H](c2cnc(OC3CCOCC3)c3cnc(N[C@@H](C)COC)nc32)CC1` [Compound 340], the IC50 at AXL was in the range of 1 to 10 µM; at TYRO3, 0.1 to 1 µM.
For `CNS(=O)(=O)N1CCC(c2cnc(OC3CCOCC3)c3cnc(N[C@@H](C)COC)nc23)CC1` [Compound 341] the same measures were 1 to 10 µM and 0.1 to 1 µM.
The matching figures for `COC[C@H](C)Nc1ncc2c(OC3CCOCC3)ncc(-c3ccnnc3)c2n1` [Compound 342]: 1 to 10 µM and 1 to 10 µM.
For `COC[C@H](C)Nc1ncc2c(OC3C[C@H]4CC[C@@H](C3)N4C)ncc([C@H]3CC[C@H](O)CC3)c2n1` (some centres unmarked) [Compound 343] the same measures were 0.1 to 1 µM and not above 0.1 µM.
On to `COC[C@H](C)Nc1ncc2c(OC3CCN(c4ncccn4)CC3)ncc([C@H]3CC[C@H](O)CC3)c2n1` [Compound 344], for which the IC50 against AXL and on TYRO3 was 0.1 to 1 µM throughout.
On to `CNC(=O)N1CCC(c2cnc(OC3CCOCC3)c3cnc(N[C@@H](C)COC)nc23)CC1` [Compound 345], for which the IC50 at AXL and against TYRO3 was 1 to 10 µM each time.
For `COC[C@H](C)Nc1ncc2c(OC3CCOCC3)ncc(C3CCCCN3)c2n1` (some centres unmarked) [Compound 346], the IC50 against AXL and against TYRO3 was 1 to 10 µM in each case.
Turning to `COC[C@H](C)Nc1ncc2c(OC3CCOCC3)ncc(-c3cn[nH]c3)c2n1` [Compound 347], the IC50 against AXL lay within 1 to 10 µM; at TYRO3 it was 0.1 to 1 µM.
The matching figures for `COC[C@H](C)Nc1ncc2c(C3CC3)ncc([C@H]3CC[C@H](O)CC3)c2n1` [Compound 349]: 0.1 to 1 µM and not above 0.1 µM.
For `COC[C@H](C)Nc1ncc2c(OC3CCOCC3)ncc(C3CCCCN3C)c2n1` (some centres unmarked) [Compound 350] the same measures were 1 to 10 µM and 1 to 10 µM.
Turning to `COC[C@@H](C)Nc1ncc2c(OC3CC(O)C3)ncc([C@H]3CC[C@H](O)CC3)c2n1` (some centres unmarked) [Compound 351], the IC50 was 1 to 10 µM at AXL and not above 0.1 µM at TYRO3.
As to `C[C@@H](CC(F)(F)F)Nc1ncc2c(OC3CCN(C)CC3)ncc([C@H]3CC[C@H](O)CC3)c2n1` [Compound 352], the figures for the IC50 against AXL and on TYRO3 were 0.1 to 1 µM and not above 0.1 µM, respectively.
The matching figures for `O=C(O)[C@H]1CC[C@@H](Nc2ncc3c(OC4CCOCC4)ncc([C@H]4CC[C@H](O)CC4)c3n2)CC1` [Compound 353]: 1 to 10 µM and 1 to 10 µM.
For `COC[C@H](C)Nc1ncc2c(O[C@@H]3CCOC3)ncc([C@H]3CC[C@H](O)CC3)c2n1` [Compound 354] the same measures were 1 to 10 µM and 0.1 to 1 µM.
